For 17 compounds, IC50 and Ki results are on record in US11130769B2 (Prelude Therapeutics Incorporated, priority 2018, dated 2021).

Like-named read-outs stand apart in the source and are kept apart here. A value given as a limit tells only on which side of the number the result lay.

For one assay, the system named is H929 cells. Briefly: Cell viability assay (H929 10 FBS). The following applies: Homo sapiens, NCI-H929, 24 hours, read-out: H929_10FBS IC50. Type of assay: cell-based. An outline of the steps:
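ATP-based luminescence (CellTiter-Glo or ATPlite 1 Step, 30-60 min at RT) gauged viability of H929 myeloma cells after 24 h compound treatment at 37 °C. Cells plated at 4000 per well in 10% FBS RPMI 1640 supplemented with pyruvate, HEPES and glucose.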

A further assay has as its target MCL-1 (Homo sapiens (Human), UniProt Q07820). In words: Cell free Mcl-1:Bim affinity assay (fluorescence polarization competition). The following applies: 15 nM MCL-1, 5 nM FITC-Bim, 1 hour at room temperature, read-out: BIM_Ki. The assay is classed as binding. An outline of the steps:
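Fluorescence polarization competition: 10-point 3-fold compound dilutions displaced 5 nM FITC-Bim from 15 nM MCL-1 over 1 h at room temperature. Ki was derived from the fitted IC50 using the Nikolovska-Coleska equation, with percent inhibition normalized to DMSO and positive controls.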

Sequence of MCL-1 (Q07820 whole entry): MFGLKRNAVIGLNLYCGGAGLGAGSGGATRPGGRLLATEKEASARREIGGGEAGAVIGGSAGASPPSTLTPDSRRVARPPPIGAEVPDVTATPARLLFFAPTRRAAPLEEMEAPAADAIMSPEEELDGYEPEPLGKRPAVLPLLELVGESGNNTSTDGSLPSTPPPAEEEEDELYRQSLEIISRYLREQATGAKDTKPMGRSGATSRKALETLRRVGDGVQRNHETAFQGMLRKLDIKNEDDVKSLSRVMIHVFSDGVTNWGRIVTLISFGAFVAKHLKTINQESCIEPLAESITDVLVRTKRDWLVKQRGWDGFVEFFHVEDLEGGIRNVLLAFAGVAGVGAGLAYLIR

By IC50 is commonly meant the concentration that inhibits the measured activity by half. As to `CC(=O)NS(=O)(=O)c1ccc2c(c1)N(CC1CCC1)C[C@@]1(CCCc3cc(Cl)ccc31)CO2` [Example 12, N-[(3S)-6′-Chloro-5-(cyclobutylmethyl)spiro[2,4-dihydro-1,5-benzoxazepine-3,1′-tetralin]-7-yl]sulfonylacetamide], the IC50 with H929 cells was > 1000 nM. The Ki on MCL-1 (numeric values) was found to be 15.8 nM.
For the compound `CO[C@@H]1/C=C/CNC(=O)NS(=O)(=O)c2ccc3c(c2)N(C[C@@H]2CC[C@H]21)C[C@@]1(CCCc2cc(Cl)ccc21)CO3` [Example 131, (3R,6R,7R,8E,21S)-6′-chloro-7-methoxy-14,14-dioxo-spiro[19-oxa-14-thia-1,11,13-triazatetracyclo[13.7.2.03,6.018,23]tetracosa-8,15,17,23-tetraene-21,1′-tetralin]-12-one], the IC50 in the assay with H929 cells was > 1000 nM. Besides, the Ki on MCL-1 (class symbols) lay within 1 to 100 nM.
`CO[C@@H]1/C=C/CN(C)[C@@H](C(C)C)C(=O)NS(=O)(=O)c2ccc3c(c2)N(C[C@@H]2CC[C@H]21)C[C@@]1(CCCc2cc(Cl)ccc21)CO3` [Example 129, (3R,6R,7R,8E,12S,22S)-6′-Chloro-7-methoxy-11-methyl-12-isopropyl-15,15-dioxo-spiro[20-oxa-15-thia-1,11,14-triazatetracyclo[14.7.2.03,6.019,24]pentacosa-8,16,18,24-tetraene-22,1′-tetralin]-13-one]: the IC50 with H929 cells is > 1000 nM. Further, on MCL-1 (class symbols), the Ki is 1 to 100 nM.
In the same order, the values of `CCCN1C/C=C/[C@H](OC(=O)N(C)C)[C@@H]2CC[C@H]2CN2C[C@@]3(CCCc4cc(Cl)ccc43)COc3ccc(cc32)S(=O)(=O)NC(=O)C1(C)C` [Example 211, [(3R,6R,7S,8E,22S)-6′-Chloro-12,12-dimethyl-13,15,15-trioxo-11-propyl-spiro[20-oxa-15-thia-1,11,14-triazatetracyclo[14.7.2.03,6.019,24]pentacosa-8,16,18,24-tetraene-22,1′-tetralin]-7-yl] N,N-dimethylcarbamate] are < 500 nM and < 1 nM.
For `CO[C@H]1CCCCC(=O)NS(=O)(=O)c2ccc3c(c2)N(C[C@@H]2CC[C@H]21)C[C@@]1(CCCc2cc(Cl)ccc21)CO3` [Example 77, (3R,6R,7S,21S)-6′-Chloro-7-methoxy-14,14-dioxo-spiro[19-oxa-14-thia-1,13-diazatetracyclo[13.7.2.03,6.018,23]tetracosa-15,17,23-triene-21,1′-tetralin]-12-one] the same measures were > 1000 nM and 1 to 100 nM.
In the same order, the values of `CO[C@@H]1/C=C/CN(C)C2(CCC2)C(=O)NS(=O)(=O)c2ccc3c(c2)N(C[C@@H]2CC[C@H]21)C[C@@]1(CCCc2cc(Cl)ccc21)CO3` [Example 120, (3R,6R,7R,8E,22S)-6′-Chloro-7-methoxy-11-methyl-12,12-(1,3-propylene)-15,15-dioxo-spiro[20-oxa-15-thia-1,11,14-triazatetracyclo[14.7.2.03,6.019,24]pentacosa[8,16(25),17,19(24)]tetraene-22,1′-tetralin]-13-one] are < 1000 nM and 1 to 100 nM.
On to `CO[C@H]1/C=C/C[C@H](C)CC(=O)NS(=O)(=O)c2ccc3c(c2)N(C[C@@H]2CC[C@H]21)C[C@@]1(CCCc2cc(Cl)ccc21)CO3` [Example 82, (3R,6R,7S,8E,11S,22S)-6′-Chloro-7-methoxy-11-methyl-15,15-dioxo-spiro[20-oxa-15-thia-1,14-diazatetracyclo[14.7.2.03,6.019,24]pentacosa-8,16(25),17,19(24)-tetraene-22,1′-tetralin]-13-one], for which, in the assay with H929 cells, the IC50 is > 1000 nM. Besides, the Ki at MCL-1 (class symbols) lay within 1 to 100 nM.
For `CN1CCCN(C(=O)O[C@H]2/C=C/COC(C)(C)C(=O)NS(=O)(=O)c3ccc4c(c3)N(C[C@@H]3CC[C@H]32)C[C@@]2(CCCc3cc(Cl)ccc32)CO4)CC1` [Example 54, [(3R,6R,7S,8E,22S)-6′-Chloro-12,12-dimethyl-13,15,15-trioxo-spiro[11,20-dioxa-15-thia-1,14-diazatetracyclo[14.7.2.03,6.019,24]pentacosa-8,16,18,24-tetraene-22,1′-tetralin]-7-yl] 4-methyl-1,4-diazepane-1-carboxylate] the same measures were < 500 nM and < 1 nM.
Regarding `CC(=O)NS(=O)(=O)c1ccc2c(c1)N(CC1CCC1)CC1(CCCc3cc(Cl)ccc31)CO2` (stereo not shown) [Example 1, N-[6′-Chloro-5-(cyclobutylmethyl)spiro[2,4-dihydro-1,5-benzoxazepine-3,1′-tetralin]-7-yl]sulfonylacetamide], in the assay with H929 cells, the IC50 is > 1000 nM. Besides, the Ki on MCL-1 (numeric values) turned out to be 45.6 nM.
`CC1(C)OC/C=C/[C@H](OC(=O)N2CCN(CCO)CC2)[C@@H]2CC[C@H]2CN2C[C@@]3(CCCc4cc(Cl)ccc43)COc3ccc(cc32)S(=O)(=O)NC1=O` [Example 148, [(3R,6R,7S,8E,22S)-6′-Chloro-12,12-dimethyl-13,15,15-trioxo-spiro[11,20-dioxa-15-thia-1,14-diazatetracyclo[14.7.2.03,6.019,24]pentacosa-8,16,18,24-tetraene-22,1′-tetralin]-7-yl] 4-(2-hydroxyethyl)piperazine-1-carboxylate]: the IC50 with H929 cells is < 500 nM. In addition, the Ki at MCL-1 (class symbols) is < 1 nM.
In the same order, the values of `CN(C)C[C@@H]1CCCN1C(=O)O[C@H]1/C=C/COC(C)(C)C(=O)NS(=O)(=O)c2ccc3c(c2)N(C[C@@H]2CC[C@H]21)C[C@@]1(CCCc2cc(Cl)ccc21)CO3` [Example 168, [(3R,6R,7S,8E,22S)-6′-Chloro-12,12-dimethyl-13,15,15-trioxo-spiro[11,20-dioxa-15-thia-1,14-diazatetracyclo[14.7.2.03,6.019,24]pentacosa-8,16,18,24-tetraene-22,1′-tetralin]-7-yl] (2S)-2-[(dimethylamino)methyl]pyrrolidine-1-carboxylate] are < 500 nM and < 1 nM.
For `CO[C@H]1/C=C/CNCC2(CCC2)C(=O)NS(=O)(=O)c2ccc3c(c2)N(C[C@H]2CCC21)CC1(CCCc2cc(Cl)ccc21)CO3` (stereo partly drawn) [Example 26, (3R,6R,7R,8E,23S)-6′-Chloro-7-methoxy-13,13-(1,3-propylene)-16,16-dioxo-spiro[21-oxa-16-thia-1,11,15-triazatetracyclo[15.7.2.03,6.020,25]hexacosa[8,17(26),18,20(25)]tetraene-23,1′-tetralin]-14-one] the same measures were > 1000 nM and 1 to 100 nM.
In the case of `CN1C/C=C/[C@H](O)[C@@H]2CC[C@H]2CN2C[C@@]3(CCCc4cc(Cl)ccc43)COc3ccc(cc32)S(=O)(=O)NC(=O)C1(C)C` [Example 43, (3R,6R,7S,8E,22S)-6′-Chloro-7-hydroxy-11,12,12-trimethyl-15,15-dioxo-spiro[20-oxa-15-thia-1,11,14-triazatetracyclo[14.7.2.03,6.019,24]pentacosa-8,16,18,24-tetraene-22,1′-tetralin]-13-one], in the assay on H929 cells, the IC50 is > 1000 nM. In addition, the Ki at MCL-1 (class symbols) lay in the range of 1 to 100 nM.
As to `CN(C)C(=O)O[C@@H]1/C=C/COC(C)(C)C(=O)NS(=O)(=O)c2ccc3c(c2)N(C[C@@H]2CC[C@H]21)C[C@@]1(CCCc2cc(Cl)ccc21)CO3` [Example 37, [(3R,6R,7R,8E,22S)-6′-Chloro-12,12-dimethyl-13,15,15-trioxo-spiro[11,20-dioxa-15-thia-1,14-diazatetracyclo[14.7.2.03,6.019,24]pentacosa-8,16,18,24-tetraene-22,1′-tetralin]-7-yl] N,N-dimethylcarbamate], the IC50 in the assay with H929 cells is < 500 nM. Moreover, at MCL-1 (class symbols), the Ki is < 1 nM.
Regarding `CC1(C)OC/C=C/[C@H](OCCN2CC(F)(F)C2)[C@@H]2CC[C@H]2CN2C[C@@]3(CCCc4cc(Cl)ccc43)COc3ccc(cc32)S(=O)(=O)NC1=O` [Example 258, (3R,6R,7S,8E,22S)-6′-Chloro-7-[2-(3,3-difluoroazetidin-1-yl)ethoxy]-12,12-dimethyl-15,15-dioxo-spiro[11,20-dioxa-15-thia-1,14-diazatetracyclo[14.7.2.03,6.019,24]pentacosa-8,16,18,24-tetraene-22,1′-tetralin]-13-one], the IC50 in the assay on H929 cells was < 500 nM. The Ki on MCL-1 (class symbols) is < 1 nM.
`CC1(C)OC/C=C/[C@@H](OCCN2CCCC2)[C@@H]2CC[C@H]2CN2C[C@@]3(CCCc4cc(Cl)ccc43)COc3ccc(cc32)S(=O)(=O)NC1=O` [Example 274, (3R,6R,7R,8E,22S)-6′-Chloro-12,12-dimethyl-15,15-dioxo-7-(2-pyrrolidin-1-ylethoxy)spiro[11,20-dioxa-15-thia-1,14-diazatetracyclo[14.7.2.03,6.019,24]pentacosa-8,16,18,24-tetraene-22,1′-tetralin]-13-one]: the half-inhibitory concentration (IC50) in the assay with H929 cells is < 1000 nM. Moreover, the Ki at MCL-1 (class symbols) is < 1 nM.
For `CCN1C/C=C/[C@H](OC(=O)N2CCC(OC)CC2)[C@@H]2CC[C@H]2CN2C[C@@]3(CCCc4cc(Cl)ccc43)COc3ccc(cc32)S(=O)(=O)NC(=O)C1(C)C` [Example 222, [(3R,6R,7S,8E,22S)-6′-Chloro-11-ethyl-12,12-dimethyl-13,15,15-trioxo-spiro[20-oxa-15-thia-1,11,14-triazatetracyclo[14.7.2.03,6.019,24]pentacosa-8,16,18,24-tetraene-22,1′-tetralin]-7-yl] 4-methoxypiperidine-1-carboxylate] the same measures were < 500 nM and < 1 nM.
